Source: ChEMBL document CHEMBL1126002, “Interphenylene 7-oxabicyclo[2.2.1]heptanes. SQ33,961: a new potent, long-acting thromboxane antagonist” (Bioorg Med Chem Lett, 1991)

Key:
Thromboxane A2 receptor = molecular target: T1, Thromboxane A2 receptor (Homo sapiens, UniProt P21731); assay: Compound was evaluated for the receptor binding studies with Thromboxane A2 receptor using [3H]-SQ 29548 as radioligand in human platelet membranes.; type: cell membranes
T1 sequence (P21731 whole entry): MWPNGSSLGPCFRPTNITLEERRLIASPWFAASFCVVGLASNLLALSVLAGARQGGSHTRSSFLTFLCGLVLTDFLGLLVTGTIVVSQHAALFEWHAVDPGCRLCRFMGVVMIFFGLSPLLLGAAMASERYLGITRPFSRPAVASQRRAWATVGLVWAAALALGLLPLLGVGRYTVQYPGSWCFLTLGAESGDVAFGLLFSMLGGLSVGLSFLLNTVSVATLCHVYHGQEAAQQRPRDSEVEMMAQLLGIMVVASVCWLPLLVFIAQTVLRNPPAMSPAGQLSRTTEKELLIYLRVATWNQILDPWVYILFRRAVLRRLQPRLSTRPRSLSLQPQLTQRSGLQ

Homo sapiens [1] = organism: Homo sapiens; assay: Compound was evaluated for the ability to inhibit […] induced platelet aggregation (U-IPA) in human platelet rich plasma.; type: functional; conditions: read-out: I50
Homo sapiens [2] = organism: Homo sapiens; assay: Compound was evaluated for the ability to inhibit arachidonic acid induced platelet aggregation (AAIPA) in human platelet rich plasma; type: functional; conditions: read-out: I50
Mus musculus = assay: Compound (0.2 mpk/po) was evaluated for the ability to protect from U-46,619 induced lethality in mice as a function of time one half of the population survives from time of dosage; type: functional

Compound | Kd (Thromboxane A2 receptor) [nM] | IC50 (Homo sapiens [1]) [nM] | IC50 (Homo sapiens [2]) [nM] | T50 (Mus musculus) [h]
O=C(O)CCc1ccccc1CC1C2CCC(O2)C1c1nc(C(=O)NCCCCC2CCCCC2)co1 (stereo unspecified) | 0.1 | 6 | 2 | 23
O=C(O)CCc1ccccc1CC1C2CCC(O2)C1c1nc(C(=O)NCCCCc2ccc(Cl)cc2)co1 (stereo unspecified) |  | 13 | 4 | 
CCCCCCCNC(=O)c1coc(C2C3CCC(O3)C2Cc2ccccc2CCC(=O)O)n1 (stereo unspecified) |  | 13 | 2 | 
CNC(=O)c1coc(C2C3CCC(O3)C2Cc2ccccc2CCC(=O)O)n1 (stereo unspecified) |  | 81 | 20 | 
CC(C)(C)CCCCCCNC(=O)c1coc(C2C3CCC(O3)C2Cc2ccccc2CCC(=O)O)n1 (stereo unspecified) |  | 5 | 3 | 
O=C(O)CCc1ccccc1CC1C2CCC(O2)C1c1nc(C(=O)NC2CCCCC2)co1 (stereo unspecified) |  | 25 | 3 | 
CCCCCCCCCCNC(=O)c1coc(C2C3CCC(O3)C2Cc2ccccc2CCC(=O)O)n1 (stereo unspecified) |  | 6 | 1 | 
